Test results as given in patent US10894798B2, “Substituted dihydropyrrolopyrazole derivative” (UBE INDUSTRIES, LTD., priority 2015, dated 2021).
Read-outs that look alike come from different tables or passages of the source.

Assays:
[1] = system: liver cancer cell line HepG2; assay: Various human cancer cell growth inhibition test: HepG2; assay type: cell-based; settings: CellTiter-Glo, read-out: GI50 value (concentration necessary for inhibiting 50% of cell growth)
Excerpt: (§1) A breast cancer cell line BT-549 (obtained from American Type Culture Collection (ATCC)), a uterus cancer cell line C-33A (obtained from ATCC), an ovary cancer cell line PA-1 (obtained from ATCC), a large-cell lung cancer cell line NCI-H460 (obtained from ATCC), a small-cell lung cancer cell line NCI-H82 (obtained from ATCC), a kidney cancer cell line ACHN (obtained from ATCC), a pancreatic cancer cell line BxPC-3 (obtained from ATCC), a malignant melanoma cell line A375 (obtained from ATCC), a throat cancer cell line FaDu (obtained from ATCC), a medulloblastoma cell line Daoy (obtained from ATCC), a cutaneous epithelioid sarcoma cell line VA-ES-BJ (obtained from ATCC), a rhabdomyosarcoma cell line A-204 (obtained from ATCC), a prostate cancer cell line DU145 (obtained from ATCC), a bladder cancer cell line T24 (obtained from ATCC), a lymphoma cell line SR (obtained from ATCC), a neuroblastoma cell line SH-SY5Y (obtained from DS Pharma Biomedical Co., Ltd.), a liver cancer cell line HepG2 (obtained from DS Pharma Biomedical Co., Ltd.), a stomach cancer cell line HGC-27 (obtained from DS Pharma Biomedical Co., Ltd.), and a multiple myeloma cell line NCI-H929 (obtained from DS Pharma Biomedical Co., Ltd.) were used as human cancer cell lines.
(§2) Each cell line was cultured in a cell culture medium recommended by ATCC or DS Pharma Biomedical Co., Ltd. and inoculated at 0.3 to 5.0×10^3 cells/well to a 96-well plate. The cells were cultured overnight in a carbon dioxide incubator of 37° C. containing 5% carbon dioxide. The medium was replaced with a fresh medium on the next day, then replaced with a mixed solution of a DMSO solution of a test compound with varying concentrations and a culture medium (final DMSO concentration: 0.1%), and left standing in a carbon dioxide incubator (day 0). IV-361, IV-379, IV-3, IV-215, IV-299, IV-669, IV-1049, and palbociclib (for comparison) were used as test compounds. For a control group, DMSO was added instead of the DMSO solution of the test compound to a cell culture medium (final DMSO concentration: 0.1%).
(§3) After culture for a predetermined period, the ATP activity of BT-549, C-33A, PA-1, NCI-H460, NCI-H82, ACHN, BxPC-3, A375, FaDu, Daoy, VA-ES-BJ, A-204, DU145, T24, and SR was measured by using ATPlite (manufactured by PerkinElmer, Inc.). The ATP activity of SH-SY5Y, HepG2, HGC-27, and NCI-H929 was measured by using CellTiter-Glo (manufactured by Promega Corp.).
(§4) The rate of inhibition of cell growth (%) was calculated according to the expression given below. Specifically, in the case where the difference between the ATP activity before culture (day 0) and the ATP activity after culture in the test compound-administered group is the same as the difference between the ATP activity before culture (day 0) and the ATP activity after culture in the control group, the rate of inhibition of cell growth is 0%. Rate of inhibition of cell growth=(1−((ATP activity of the test compound-administered group after culture)−(ATP activity of the test compound-administered group on day 0))/((ATP activity of the control group after culture)−(ATP activity of the control group on day 0)))×100
(§5) The concentration of the test compound necessary for inhibiting 50% of cell growth (GI50 value) was calculated by using EXSUS (version 8.1.0, manufactured by CAC Exicare Corp.).

[2] = system: multiple myeloma cell line NCI-H929; assay: Various human cancer cell growth inhibition test: NCI-H929; assay type: cell-based; settings: CellTiter-Glo, read-out: GI50 value (concentration necessary for inhibiting 50% of cell growth)
Excerpt: as §1, §2, §3, §4, §5

[3] = system: pancreatic cancer cell line BxPC-3; assay: Various human cancer cell growth inhibition test: BxPC-3; assay type: cell-based; settings: ATPlite, read-out: GI50 value (concentration necessary for inhibiting 50% of cell growth)
Excerpt: as §1, §2, §3, §4, §5

[4] = system: prostate cancer cell line DU145; assay: Various human cancer cell growth inhibition test: DU145; assay type: cell-based; settings: DU 145, ATPlite, read-out: GI50 value (concentration necessary for inhibiting 50% of cell growth)
Excerpt: as §1, §2, §3, §4, §5

[5] = system: medulloblastoma cell line Daoy; assay: Various human cancer cell growth inhibition test: Daoy; assay type: cell-based; settings: ATPlite, read-out: GI50 value (concentration necessary for inhibiting 50% of cell growth)
Excerpt: as §1, §2, §3, §4, §5

[6] = system: IL-2 production; assay: Human PBMC CD3/CD28-induced IL-2 production inhibition test; assay type: cell-based; settings: 48 h, read-out: IC50 value, IL-2 production inhibition
Method: PBMC (peripheral blood mononuclear cell) was separated and collected by using Ficoll-Paque (manufactured by GE Healthcare Japan Corp.) from blood collected from a healthy human adult in the presence of heparin. A RPMI1640 medium containing 10% FBS, 1% penicillin/streptomycin/amphotericin B, essential amino acids, and pyruvic acid and containing a test compound dissolved in DMSO and 2 μg/mL CD28 was added at 100 μL/well to T cell Activation Plate Anti-Human CD3 96-well plate (manufactured by Becton, Dickinson and Company), and subsequently, a PBMC suspension prepared such that the number of cells was 2×10^6 cells/mL was added thereto at 100 μL/well (final DMSO concentration: 0.1%). A RPMI1640 medium containing 10% FBS and containing 0.1% DMSO and 2 μg/mL CD28 was similarly added to wells not supplemented with the test compound. After culture for 2 days in a carbon dioxide incubator, the culture supernatant was collected. The collected culture supernatant was stored at −20° C. until IL-2 content measurement.
In the measurement of an L-2 content in the culture supernatant, a sandwich ELISA kit (Quantikine Human IL-2, manufactured by R&D Systems, Inc.) was used. The L-2 content of each sample was calculated from the calibration curve of Standard IL-2 included in the kit. […] A test compound concentration necessary for inhibiting 50% of L-2 production (IC50 value) was calculated from the concentration of the added test compound and the rate of inhibition of IL-2 production by the test compound by using EXSUS (version 8.1.0, manufactured by CAC Exicare Corp.).

[7] = system: mouse imiquimod-induced psoriasis model; assay: Ear thickening suppression test using mouse imiquimod-induced psoriasis model; assay type: in vivo; settings: topical, application of a 0.01% solution in methanol, female BALB/c mice, read-out: rate of inhibition of increase in ear thickness
Method: An imiquimod-induced psoriasis model test was carried out by modifying the method of Leslie van der Fits et al. (J. Immunol. 182, 5836 (2009)).
Female BALB/c mice (supplied by Charles River Laboratories Japan, Inc.) were used as laboratory animals. On the start day of the test, the thicknesses of the right auricles of the mice were measured with a thickness gauge (manufactured by TECLOCK Corp.). A test compound or a solvent was applied or orally administered thereto, and after a certain time, a certain amount of Beselna Cream 5% (containing 5% imiquimod, manufactured by Mochida Pharmaceutical Co., Ltd.) was applied to the insides of the right auricles. The test compound or solvent application or oral administration and the imiquimod application were carried out for a certain period, and the thicknesses of the right auricles were measured again on the final day. The thicknesses of the right auricles were compared between the solvent-administered group and the test compound group, and the rate of inhibition was calculated.

[8] = human PBMC, CD3/CD28 stimulation, culture for 2 days, ELISA

## CC1(C)c2[nH]nc(NC(=O)C3([Si](C)(C)C)CCC3)c2CN1C(=O)Nc1ccccc1F [IV-3, N-(2-Fluorophenyl)-6,6-dimethyl-3-[1-(trimethylsilyl)cyclobutanecarboxamido]-4,6-dihydropyrrolo[3,4-c]pyrazole-5(1H)-carboxamide]
[1]
  GI50: 300 to 1000 nM
[2]
  GI50: < 300 nM
[3]
  GI50: < 300 nM
[4]
  GI50: < 300 nM
[5]
  GI50: < 300 nM
[6]; [8]
  IC50: ≤ 100 nM

## Cc1ccccc1NC(=O)N1Cc2c(NC(=O)C3([Si](C)(C)C)CCC3)n[nH]c2C1(C)C [IV-21, 6,6-Dimethyl-N-(o-tolyl)-3-[1-(trimethylsilyl)cyclobutanecarboxamido]-4,6-dihydropyrrolo[3,4-c]pyrazole-5(1H)-carboxamide]
[6]; [8]
  IC50: ≤ 100 nM

## CC1(C)c2[nH]nc(NC(=O)C3([Si](C)(C)C)CCC3)c2CN1C(=O)Nc1c(F)cccc1Cl [IV-113, N-(2-Chloro-6-fluorophenyl)-6,6-dimethyl-3-[1-(trimethylsilyl)cyclobutanecarboxamido]-4,6-dihydropyrrolo[3,4-c]pyrazole-5(1H)-carboxamide]
[6]; Homo sapiens, PBMC
  IC50: ≤ 100 nM

## Cc1ccc(F)c(NC(=O)N2Cc3c(NC(=O)C4([Si](C)(C)C)CCC4)n[nH]c3C2(C)C)c1 [IV-127, N-(2-Fluoro-5-methylphenyl)-6,6-dimethyl-3-[1-(trimethylsilyl)cyclobutanecarboxamido]-4,6-dihydropyrrolo[3,4-c]pyrazole-5 (1H)-carboxamide]
[6]; [8]
  IC50: ≤ 100 nM

## Cc1cccc(F)c1NC(=O)N1Cc2c(NC(=O)C3([Si](C)(C)C)CCC3)n[nH]c2C1(C)C [IV-129, N-(2-Fluoro-6-methylphenyl)-6,6-dimethyl-3-[1-(trimethylsilyl)cyclobutanecarboxamido]-4,6-dihydropyrrolo[3,4-c]pyrazole-5 (1H)-carboxamide]
[7]
  inhibition in vivo at 0.01 %: ≥ 50%

## CCc1cccc(F)c1NC(=O)N1Cc2c(NC(=O)C3([Si](C)(C)C)CCC3)n[nH]c2C1(C)C [IV-137, N-(2-Ethyl-6-fluorophenyl)-6,6-dimethyl-3-[1-(trimethylsilyl)cyclobutanecarboxamido]-4,6-dihydropyrrolo[3,4-c]pyrazole-5(1H)-carboxamide]
[7]
  inhibition in vivo at 0.01 %: ≥ 50%

## COc1cccc(F)c1NC(=O)N1Cc2c(NC(=O)C3([Si](C)(C)C)CCC3)n[nH]c2C1(C)C [IV-161, N-(2-Fluoro-6-methoxyphenyl)-6,6-dimethyl-3-[1-(trimethylsilyl)cyclobutanecarboxamido]-4,6-dihydropyrrolo[3,4-c]pyrazole-5(1H)-carboxamide]
[6]; [8]
  IC50: ≤ 100 nM

## CC1(C)c2[nH]nc(NC(=O)C3([Si](C)(C)C)CCC3)c2CN1C(=O)Nc1c(F)cccc1OC(F)F [IV-169, N-[2-(Difluoromethoxy)-6-fluorophenyl]-6,6-dimethyl-3-[1-(trimethylsilyl)cyclobutanecarboxamido]-4,6-dihydropyrrolo[3,4-c]pyrazole-5(1H)-carboxamide]
[7]
  inhibition in vivo at 0.01 %: ≥ 50%

## CC1(C)c2[nH]nc(NC(=O)C3([Si](C)(C)C)CCC3)c2CN1C(=O)Nc1c(Cl)cccc1Cl [IV-199, N-(2,6-Dichlorophenyl)-6,6-dimethyl-3-[1-(trimethylsilyl)cyclobutanecarboxamido]-4,6-dihydropyrrolo[3,4-c]pyrazole-5(1H)-carboxamide]
[7]
  inhibition in vivo at 0.01 %: ≥ 50%

## COc1cccc(Cl)c1NC(=O)N1Cc2c(NC(=O)C3([Si](C)(C)C)CCC3)n[nH]c2C1(C)C [IV-247, N-(2-Chloro-6-methoxyphenyl)-6,6-dimethyl-3-[1-(trimethylsilyl)cyclobutanecarboxamido]-4,6-dihydropyrrolo[3,4-c]pyrazole-5(1H)-carboxamide]
[7]
  inhibition in vivo at 0.01 %: ≥ 50%

## Cc1ccc(F)cc1NC(=O)N1Cc2c(NC(=O)C3([Si](C)(C)C)CCC3)n[nH]c2C1(C)C [IV-361, N-(5-Fluoro-2-methylphenyl)-6,6-dimethyl-3-[1-(trimethylsilyl)cyclobutanecarboxamido]-4,6-dihydropyrrolo[3,4-c]pyrazole-5 (1H)-carboxamide]
[1]
  GI50: 300 to 1000 nM
[2]
  GI50: < 300 nM
[3]
  GI50: < 300 nM
[4]
  GI50: < 300 nM
[5]
  GI50: < 300 nM
[6]; [8]
  IC50: ≤ 100 nM

## Cc1ccc(C)c(NC(=O)N2Cc3c(NC(=O)C4([Si](C)(C)C)CCC4)n[nH]c3C2(C)C)c1 [IV-379, N-(2,5-Dimethylphenyl)-6,6-dimethyl-3-[1-(trimethylsilyl)cyclobutanecarboxamido]-4,6-dihydropyrrolo[3,4-c]pyrazole-5(1H)-carboxamide]
[1]
  GI50: < 300 nM
[2]
  GI50: < 300 nM
[3]
  GI50: < 300 nM
[4]
  GI50: < 300 nM
[5]
  GI50: < 300 nM
[6]; [8]
  IC50: ≤ 100 nM

## CCc1cccc(C)c1NC(=O)N1Cc2c(NC(=O)C3([Si](C)(C)C)CCC3)n[nH]c2C1(C)C [IV-389, N-(2-Ethyl-6-methylphenyl)-6,6-dimethyl-3-[1-(trimethylsilyl)cyclobutanecarboxamido]-4,6-dihydropyrrolo[3,4-c]pyrazole-5 (1H)-carboxamide]
[7]
  inhibition in vivo at 0.01 %: ≥ 50%

## Cc1ccc(C)c(NC(=O)N2Cc3c(NC(=O)C4([Si](C)(C)C)CCC4)n[nH]c3C2(C)C)c1F [IV-669, N-(2-Fluoro-3,6-dimethylphenyl)-6,6-dimethyl-3-[1-(trimethylsilyl)cyclobutanecarboxamido]-4,6-dihydropyrrolo[3,4-c]pyrazole-5(1H)-carboxamide]
[1]
  GI50: < 300 nM
[2]
  GI50: < 300 nM
[3]
  GI50: < 300 nM
[4]
  GI50: < 300 nM
[5]
  GI50: < 300 nM
[6]; [8]
  IC50: ≤ 100 nM
